Assay results reported in publication PMC11371747, “The role of l-leucovorin uptake and metabolism in the modulation of 5-fluorouracil efficacy and antifolate toxicity” (Frontiers in Pharmacology, 2024).
Several values for one entry are separate records, joined by “and”; a condition that tells them apart may be missing. Equal entries are not always repeated.

Tests used:
[1] = molecular target: T1, human PCFT (Homo sapiens, UniProt Q96NT5); test: Inhibition of PCFT-mediated [3H]-l-LV influx in CHO/C5-PCFT cells; type: cell-based, Chinese hamster (CHO cells); settings: for IC50: pH 5.5, 3 min, read-out: Concentration for 50% inhibition of PCFT-mediated [3H]-l-LV influx
T1 construct: expressed in transfected cells; host or cells: CHO/C5 (RFC-deficient Chinese hamster ovary cells, no PCFT)
T1 sequence (Q96NT5 1-459): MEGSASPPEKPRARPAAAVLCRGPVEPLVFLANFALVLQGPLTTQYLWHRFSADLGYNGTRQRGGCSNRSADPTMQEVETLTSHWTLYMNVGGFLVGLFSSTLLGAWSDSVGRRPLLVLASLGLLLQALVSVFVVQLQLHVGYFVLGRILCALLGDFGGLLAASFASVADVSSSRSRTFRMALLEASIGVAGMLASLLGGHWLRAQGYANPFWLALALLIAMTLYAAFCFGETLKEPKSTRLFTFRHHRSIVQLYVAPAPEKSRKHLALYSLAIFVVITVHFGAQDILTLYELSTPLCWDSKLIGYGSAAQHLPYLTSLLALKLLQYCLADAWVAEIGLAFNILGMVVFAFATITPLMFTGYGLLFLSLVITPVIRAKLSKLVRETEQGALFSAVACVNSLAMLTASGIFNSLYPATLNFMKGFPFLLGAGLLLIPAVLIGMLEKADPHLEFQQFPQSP
Protocol: (§1) In order to determine whether the LV isomers were substrates for either folate receptor α (FRα), RFC and/or PCFT, we used model systems with established overexpression of these receptors or transporters ([Westerhof et al., 1995a]; [Westerhof et al., 1995b]; [Lasry et al., 2008]; [Van der Heijden et al., 2009]).
The competitive inhibition by 2.5 μM [^3H]-l-LV influx of PCFT was measured essentially as described for the RFC assay, except that the incubation time was 3 min, at pH 5.5 (the optimal pH for PCFT) and pH 7.4 with increasing amounts of unlabelled LV stereoisomers/antifolate drug. For PCFT too, relative affinities were expressed as the concentration of unlabelled drug necessary to inhibit 50% of [^3H]-l-LV influx.

[2] = molecular target: T2, thymidylate synthase (TS) (Homo sapiens, UniProt P04818); test: TS in situ inhibition assay (TSIA) in colon cancer cells; type: cell-based; settings: WiDr, 5 µM d-LV
T2 construct: The principle of this assay is the measurement of TS enzymatic activity in intact cells; endogenous in cells; host or cells: colon cancer cell lines (WiDr, WiDr-LF, SW1398, LS174T and others)
Text: The principle of this assay is the measurement of TS enzymatic activity in intact cells. Intact cells will readily internalize radioactively labelled [5-^3H]-deoxycytidine, which will be rapidly converted by deoxycytidine kinase (dCK) to [5-^3H]-dCMP and subsequently deaminated to [5-^3H]-dUMP, which will then serve as a substrate in the TS catalysed reaction to dTMP and ^3H2O; the quantity of ^3H2O formed over time is a measure of intracellular TS activity. […] This is because dCK has a higher, cell cycle independent activity than thymidine kinase 1, which is a cell cycle dependent enzyme. For this purpose, cancer cells were cultured in six wells plates at 2.5 × 10^5 cells/2 mL/well for 24 h. Thereafter, cells were exposed to drugs with or without the LV formulations at the indicated concentrations for 4 h. 2 h before the end of the incubation period [5-^3H]-2′-deoxycytidine (final concentration 1 µM) was added to the cells. […] In most cell lines we quantified dCK activity and dCK mRNA levels.

[3] = molecular target: T3, reduced folate carrier (RFC/SLC19A1) (Homo sapiens, UniProt P41440); test: Inhibition of RFC-mediated [3H]-l-LV influx in CEM-7A cells; type: cell-based; settings: for IC50: 5 µM [3H]-l-LV, 2 min, 37°C, read-out: Concentration for 50% inhibition of [3H]-l-LV influx (RFC)
T3 construct: CEM-7A cells, which display 30-fold RFC overexpression relative to wild-type CCRF-CEM cells; endogenous in cells; host or cells: CEM-7A (CCRF-CEM variant, RFC+++ 30-fold)
T3 sequence (P41440 1-591): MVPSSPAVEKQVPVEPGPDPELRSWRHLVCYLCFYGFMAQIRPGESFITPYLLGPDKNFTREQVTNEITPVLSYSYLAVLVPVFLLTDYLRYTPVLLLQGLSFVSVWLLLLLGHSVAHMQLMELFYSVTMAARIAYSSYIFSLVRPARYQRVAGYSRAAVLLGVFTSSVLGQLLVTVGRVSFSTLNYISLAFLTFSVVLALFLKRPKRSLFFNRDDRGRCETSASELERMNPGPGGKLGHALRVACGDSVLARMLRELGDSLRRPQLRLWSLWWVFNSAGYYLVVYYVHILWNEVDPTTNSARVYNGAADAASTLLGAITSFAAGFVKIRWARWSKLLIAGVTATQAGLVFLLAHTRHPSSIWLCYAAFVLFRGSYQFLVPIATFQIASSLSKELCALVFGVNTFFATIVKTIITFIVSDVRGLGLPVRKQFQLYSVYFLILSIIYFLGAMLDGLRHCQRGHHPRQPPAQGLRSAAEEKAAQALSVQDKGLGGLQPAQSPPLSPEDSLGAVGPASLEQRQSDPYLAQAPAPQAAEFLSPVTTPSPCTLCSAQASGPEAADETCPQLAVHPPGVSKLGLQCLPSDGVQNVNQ
Protocol: as §1
CEM-7A cells (2 × 10^6) were suspended in 1 mL HBSS and the assay was initiated by addition of 25 μL 200 μM [^3H]-l-LV; 5,000 pmol (i.e., 5 μM final concentration). Incubations proceeded for 2 min at 37°C in the absence and presence of increasing amounts of unlabelled LV/antifolate drug. Blanks consisted of a separate incubation at 4°C or incubation with 100-fold molar excess of unlabelled l-LV. [^3H]-l-LV influx was terminated by adding 9 mL ice-cold HBSS, centrifugation and an additional wash of the cells with 10 mL ice-cold buffer. Cell pellets were then assessed for radioactivity. Relative affinities for RFC are expressed as the concentration of unlabelled drug necessary to inhibit [^3H]-l-LV uptake by 50%.

[4] = tested on: WiDr LF/LV cells; test: Growth inhibition, SRB assay, WiDr LF/LV; type: cell-based, human; settings: WiDr-LF cells, 5 µM d-LV
Protocol: (§2) Briefly, cells were seeded in triplicate in 96-well plates at their pre-established optimal density (CHO cells: 2,500 cells/100 μL; WiDr and HT29: 3,500 cells/100 μL; WiDr-LF/LV, LS174T: 5,000 cells/100 μL; CaCo2, CaCo2-LF/LV, H292, H28 and MSTO-211H: 6,000 cells/100 μL; H460, SW948 and SW1398: 7,000 cells/100 μL) and were allowed to attach for ∼ 24 h at 37°C in 5% CO2 and 100% humidified incubator. Thereafter, 100 μL of drug dilution without LV, or with 5 μM l-LV/5 μM d-LV/10 μM dL-LV (or any LV alone) were added. Cells were allowed to grow for 72 h at 37°C in 5% CO2 and 100% humidity. The t = 0 h control plate consisted of cells plated on the same day as the other cells, but after 24 h at 37°C in 5% CO2 and 100% humidity, only 100 μL medium was added and the cells were fixed immediately with 50% trichloroacetic acid (TCA) in milliQ water (25 μL per well) and put at 4°C for at least 1 h. Plates were washed five times with water and dried. Cells were stained with the SRB protein dye (0.4% (w/v) in 1% acetic acid. Excess dye was washed away four times with 1% acetic acid and plates were dried again. 200 μL of Tris (10 mM Tris (hydroxymethyl)-aminomethane in MQ) was added and optical density (OD) was read at 492 nm after mixing 2–3 min on a plate shaker.

[5] = molecular target: T4, folate receptor α (FRα) (Homo sapiens, UniProt P15328); test: Intact cell competitive binding assay, displacement of [3H]-folic acid from FRα in KB cells; settings: for Relative affinity for FRα: 100 pmol [3H]-FA, inverse ratio of amount of drug displacing 50% of [3H]-FA, FA set to 1
T4 construct: endogenous in cells; host or cells: KB cells (FRα++)
Protocol: as §1
For FRα we used KB cells ([Westerhof et al., 1995b]). An intact cell binding assay for competitive binding was performed as described previously ([Westerhof et al., 1995a]). Briefly, cells were washed with Hanks balanced salt solution and 6 mM glucose (HBSS, pH 7.4), suspended in 1 mL of this solution (1*10^6 for KB cells) and incubated at 4°C for 15 min with 100 pmol [^3H]-folic acid [(^3H)-FA], in the presence and absence of unlabelled folic acid or LV stereoisomers. Cells were collected by centrifugation and analysed for radioactivity. Relative affinities for FRα were defined as the inverse ratio of compound to displace 50% of radioactive folic acid from FRα. The relative affinity of folic acid was set at 1.

[6] = tested on: colon cancer cell lines; test: Growth inhibition, SRB assay, panel of colon cancer cell lines; type: cell-based, human
Protocol: as §2

[7] = CHO/C5/PCFT cells, 2.5 µM [3H]-l-LV

T4 sequence (P15328 25-257): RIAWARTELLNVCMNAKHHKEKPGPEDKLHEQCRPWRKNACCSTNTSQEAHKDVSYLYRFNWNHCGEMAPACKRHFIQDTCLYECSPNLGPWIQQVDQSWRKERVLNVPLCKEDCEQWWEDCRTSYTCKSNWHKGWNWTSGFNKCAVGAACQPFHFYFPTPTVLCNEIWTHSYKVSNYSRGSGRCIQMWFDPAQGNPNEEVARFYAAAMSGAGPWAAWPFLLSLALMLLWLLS
T2 sequence (P04818 2-313 limits assumed): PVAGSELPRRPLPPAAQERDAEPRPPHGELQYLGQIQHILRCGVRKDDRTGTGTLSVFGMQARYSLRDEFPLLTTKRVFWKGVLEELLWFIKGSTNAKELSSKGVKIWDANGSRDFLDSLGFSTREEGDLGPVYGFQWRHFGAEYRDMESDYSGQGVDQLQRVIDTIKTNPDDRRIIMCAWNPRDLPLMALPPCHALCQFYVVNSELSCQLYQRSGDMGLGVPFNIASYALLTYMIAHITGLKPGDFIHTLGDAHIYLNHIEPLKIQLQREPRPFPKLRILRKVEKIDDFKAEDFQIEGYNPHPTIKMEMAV

Structure (SMILES) | PCFT influx rate of [3H]-l-LV at pH 7.4 compared to pH 5.5 [1, 7] | Protective effect on the TSIA against antifolates [2] | IC50 [3] [µM] | Increase of IC50 value for 5FU by d-LV [4] [fold] | Molar excess over folic acid required for displacement of [3H]-FA binding from FRα [5] [fold] | Relative affinity for FRα [5] | Modulation of 5FU sensitivity ([6]; all colon cancer cell lines) | IC50 [1, 7] [µM] | RFC substrate affinity of l-LV over d-LV [3] [fold] | Modulation (enhanced efficacy) of 5FU ([6]; selected colon cancer cell lines: WiDr, HT29, SW948 and SW1398 cells, 5 µM l-LV) [fold] | PCFT substrate affinity of l-LV over d-LV [1] [fold]
Nc1nc(=O)c2c([nH]1)NC[C@H](CNc1ccc(C(=O)N[C@@H](CCC(=O)O)C(=O)O)cc1)N2C=O [[^3H]-l-LV, [3′,5′,7,9-^3H(N)]-(6S)-Leucovorin] | 11% and 11.5% |  |  |  |  |  |  |  |  |  | 
Nc1nc2c(c(=O)[nH]1)N(C=O)[C@H](CNc1ccc(C(=O)N[C@@H](CCC(=O)O)C(=O)O)cc1)CN2 [d-LV, (6R)-leucovorin] |  | does not display any protective effect | 44 | 1.5 | 69 | 0.016 | ineffective | 13.3 |  |  | 
Nc1nc2c(c(=O)[nH]1)N(C=O)C(CNc1ccc(C(=O)N[C@@H](CCC(=O)O)C(=O)O)cc1)CN2 (stereo partly drawn) [l-LV, 5-formyltetrahydrofolate] |  |  | 5.5 |  | 15 | 0.073 |  | 4 | 8 | 2 | 3.5
